Results published in patent US10562891B2, “Quinazolinones as PARP14 inhibitors” (Ribon Therapeutics Inc., priority 2017, dated 2020).
Counter-ions that a name gives are not always drawn.

Each molecule was assayed against catalytic domain of human PARP14 (Homo sapiens (Human), UniProt Q460N5) (assay: Enzymatic assay for inhibition of PARP14 (DELFIA, auto-modification with biotin-NAD)). Conditions: auto-modification of PARP14 by biotin-NAD, 50 nM PARP14, 3 μM biotin-NAD.
Chain of catalytic domain of human PARP14 (Q460N5 1611-1801): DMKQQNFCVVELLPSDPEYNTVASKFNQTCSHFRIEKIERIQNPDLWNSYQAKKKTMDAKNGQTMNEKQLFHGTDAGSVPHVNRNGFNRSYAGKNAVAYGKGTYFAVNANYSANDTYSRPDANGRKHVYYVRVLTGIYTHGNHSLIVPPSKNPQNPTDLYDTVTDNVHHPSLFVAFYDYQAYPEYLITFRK
Assay type: biochemical
Method in brief: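 DELFIA auto-modification read-out: europium-streptavidin bound to biotin-NAD incorporated onto nickel-captured His-TEV PARP14 catalytic domain. Compound preincubated 30 min, then 50 nM enzyme with 3 μM biotin-NAD reacted 3 h, all at 25 °C, pH 8, then NAD quench. Percent inhibition normalized to rucaparib/DMSO wells, fitted (4- or 3-parameter) for IC50.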
For `CN1CCN([C@H]2CC[C@@H](Nc3cc4nc(CSC5CCOCC5)[nH]c(=O)c4c(F)c3F)CC2)CC1` [Example 347], the IC50 was under 1000 nM.
Molecule `CC(=O)N1CCC(COc2cc(F)c3c(=O)[nH]c(CS[C@H]4CC[C@](C)(O)CC4)nc3c2)CC1` [Example 409] has an IC50 of under 1000 nM.
For `Cc1cccc2c(=O)[nH]c(CS[C@H]3CC[C@@H](C(N)=O)CC3)nc12` [Example 204, cis-4-(((8-Methyl-4-oxo-3,4-dihydroquinazolin-2-yl)methyl)thio)cyclohexane-1-carboxamide], the IC50 was 1000 to 10000 nM.
`Cc1cccc2c(=O)[nH]c(CSC3CCC(N(C)C)CC3)nc12` (centres unmarked) [Example 21, 2-(((4-(Dimethylamino)cyclohexyl)thio)methyl)-8-methylquinazolin-4(3H)-one] was tested, and the IC50 was under 1000 nM.
Work on `CC(=O)N1CCC(COc2cc(Cl)c3c(=O)[nH]c(CSC4CCOCC4)nc3c2)CC1` [Example 423] yielded an IC50 of under 1000 nM.
`Cc1cccc2c(=O)[nH]c(CSC3CCN(Cc4c[nH]c5ccncc45)CC3)nc12` [Example 151, 2-(((1-((1H-Pyrrolo[3,2-c]pyridin-3-yl)methyl)piperidin-4-yl)thio)methyl)-8-methylquinazolin-4(3H)-one bistrifluoroacetate] gave an IC50 of under 1000 nM.
`O=c1[nH]c(CS[C@@H]2CCNC[C@H]2F)nc2cc(NC3CCCC3)cc(F)c12` [Example 211b, 7-(Cyclopentylamino)-5-fluoro-2-((((3R,4R)-3-fluoropiperidin-4-yl)thio)methyl)quinazolin-4(3H)-one] was tested, and the IC50 was under 1000 nM.
`O=c1[nH]c(CSC2CCOCC2)nc2cc(Cc3ccccc3)ccc12` [Example 11] showed an IC50 of over 10000 nM.
`Cc1cccc2c(=O)[nH]c(CSC3CNC3)nc12` [Example 25, 2-((Azetidin-3-ylthio)methyl)-8-methylquinazolin-4(3H)-one Trifluoroacetate] gave an IC50 of over 10000 nM.
Molecule `O=c1[nH]c(CSC2CCOCC2)nc2cc(NC3CC3)ccc12` [Example 124, 7-(Cyclopropylamino)-2-(((tetrahydro-2H-pyran-4-yl)thio)methyl)quinazolin-4(3H)-one] has an IC50 of under 1000 nM.
`CC(Nc1cc2nc(CSC3CCOCC3)[nH]c(=O)c2c(F)c1F)C1CCOCC1` (centres unmarked) [Example 400] gave an IC50 of over 10000 nM.
`CO[C@H]1C[C@@H](Nc2cc3nc(CSC4CCOCC4)[nH]c(=O)c3c(F)c2F)C1` [Example 328, 5,6-Difluoro-7-(((cis)-3-methoxycyclobutyl)amino)-2-(((tetrahydro-2H-pyran-4-yl)thio)methyl)quinazolin-4(3H)-one] showed an IC50 of under 1000 nM.
With `CN1CC[C@@H](SCc2nc3cc(NC4CCCC4)cc(F)c3c(=O)[nH]2)[C@@H](F)C1` (relative stereo) [Example 413] the IC50 was under 1000 nM.
For `O=c1[nH]c(CS[C@H]2CCNC[C@@H](F)C2)nc2cc(NC3CCCC3)cc(F)c12` (relative stereo) [Example 241, 7-(Cyclopentylamino)-5-fluoro-2-(((cis-6-fluoroazepan-4-yl)thio)methyl)quinazolin-4(3H)-one], the IC50 was under 1000 nM.
In the case of `N#C[C@H]1CC[C@@H](Nc2cc3nc(CSC4CCOCC4)[nH]c(=O)c3c(F)c2F)CC1` [Example 361], the IC50 is reported as under 1000 nM.
`Cc1cccc2c(=O)[nH]c(CSC3CCN(C[C@@H]4CCCN4)CC3)nc12` [Example 161, (S)-8-Methyl-2-(((1-(pyrrolidin-2-ylmethyl)piperidin-4-yl)thio)methyl) quinazolin-4(3H)-one Hydrochloride] gave an IC50 of 1000 to 10000 nM.
Work on `O=c1[nH]c(CSC2CCOCC2)nc2cc(OC3CCCC3)ccc12` [Example 197, 7-(cyclopentyloxy)-2-(((tetrahydro-2H-pyran-4-yl)thio)methyl)quinazolin-4(3H)-one] yielded an IC50 of under 1000 nM.
Work on `Cc1ccc(F)c2c(=O)[nH]c(CS[C@H]3CC[C@@H](O)CC3)nc12` [Example 58, 5-Fluoro-2-(((cis-4-hydroxycyclohexyl)thio)methyl)-8-methylquinazolin-4(3H)-one] yielded an IC50 of under 1000 nM.
Work on `O=c1[nH]c(CSC2CCC(F)(F)CC2)nc2cc(OCC3CCOCC3)cc(F)c12` [Example 366] yielded an IC50 of under 1000 nM.
`O=c1[nH]c(CS[C@H]2CC[C@H](O)CC2)nc2cc(NC3CCC3)ccc12` [Example 194, 7-(cyclobutylamino)-2-((((1R,4R)-4-hydroxycyclohexyl)thio)methyl)quinazolin-4(3H)-one] was tested, and the IC50 was under 1000 nM.
With `O=c1[nH]c(CSC2CCOCC2)nc2cc(OCC3CCCO3)cc(F)c12` (centres unmarked) [Example 320, 5-Fluoro-2-(((tetrahydro-2H-pyran-4-yl)thio)methyl)-7-((tetrahydrofuran-2-yl)methoxy)quinazolin-4(3H)-one] the IC50 was under 1000 nM.
`CC(C)(C)CNc1cc2nc(CSC3CCOCC3)[nH]c(=O)c2c(F)c1F` [Example 384] was tested, and the IC50 was under 1000 nM.
`O=c1[nH]c(CSC2CCNCC2)nc2cc(OCC3CCCC3)cc(F)c12` [Example 282, 7-(Cyclopentylmethoxy)-5-fluoro-2-((piperidin-4-ylthio)methyl)quinazolin-4(3H)-one 2,2,2-trifluoroacetate] showed an IC50 of under 1000 nM.
Work on `Cc1cccc2c(=O)[nH]c(CSC3COC3)nc12` [Example 39, 8-Methyl-2-((oxetan-3-ylthio)methyl)quinazolin-4(3H)-one] yielded an IC50 of over 10000 nM.
With `O=c1[nH]c(CS[C@H]2C[C@@H](O)C2)nc2cc(OCC3CCOCC3)cc(F)c12` [Example 405] the IC50 was under 1000 nM.
With `Cc1cccc2c(=O)[nH]c(CSC3CCN(C[C@@H](O)CO)CC3)nc12` [Example 160, (R)-2-(((1-(2,3-Dihydroxypropyl)piperidin-4-yl)thio)methyl)-8-methyl quinazolin-4(3H)-one Trifluoroacetate] the IC50 was 1000 to 10000 nM.
With `O=c1[nH]c(CS[C@H]2CC[C@H](O)CC2)nc2cc(NC3CCCC3)cc(C(F)(F)F)c12` [Example 199, 7-(cyclopentylamino)-2-((((1R,4R)-4-hydroxycyclohexyl)thio)methyl)-5-(trifluoromethyl)quinazolin-4(3H)-one] the IC50 was under 1000 nM.
`O=c1[nH]c(CSC2CCNCC2)nc2cc(NC3CCCC3)ccc12` [Example 179, 7-(cyclopentylamino)-2-((piperidin-4-ylthio)methyl)quinazolin-4(3H)-one] gave an IC50 of under 1000 nM.
`CN1CCC(COc2cc(F)c3c(=O)[nH]c(CSC4CCOCC4)nc3c2)CC1` [Example 415] showed an IC50 of under 1000 nM.
`O=c1[nH]c(CSC2CCOCC2)nc2cnccc12` [Example 37, 2-(((Tetrahydro-2H-pyran-4-yl)thio)methyl)pyrido[3,4-d]pyrimidin-4(3H)-one] showed an IC50 of over 10000 nM.
With `COc1ccc(Nc2ccc3c(=O)[nH]c(CSC4CCOCC4)nc3c2)cc1` [Example 82, 7-((4-Methoxyphenyl)amino)-2-(((tetrahydro-2H-pyran-4-yl)thio)methyl)quinazolin-4(3H)-one] the IC50 was 1000 to 10000 nM.
Work on `Cc1cccc2c(=O)[nH]c(CSC3CCN(Cc4ccc5c(c4)NC(=O)C5)CC3)nc12` [Example 156, 8-Methyl-2-(((1-((2-oxoindolin-6-yl)methyl)piperidin-4-yl)thio)methyl)quinazolin-4(3H)-one trifluoroacetate] yielded an IC50 of 1000 to 10000 nM.
Work on `O=c1[nH]c(CSC2CCNCC2)nc2cc(NC3CCCC3)cc(F)c12` [Example 176, 7-(Cyclopentylamino)-5-fluoro-2-((piperidin-4-ylthio)methyl)quinazolin-4(3H)-one Hydrochloride] yielded an IC50 of under 1000 nM.
`O=c1[nH]c(CSC2CCOCC2)nc2cc(OCC3CCN(C4COC4)CC3)cc(F)c12` [Example 301, 5-Fluoro-7-((1-(oxetan-3-yl)piperidin-4-yl)methoxy)-2-(((tetrahydro-2H-pyran-4-yl)thio)methyl)quinazolin-4(3H)-one] gave an IC50 of under 1000 nM.
With `Cc1cccc2c(=O)[nH]c(CSC3CCN(Cc4cncn4Cc4ccccc4)CC3)nc12` [Example 153, 2-(((1-((1-Benzyl-1H-imidazol-5-yl)methyl)piperidin-4-yl)thio)methyl)-8-methylquinazolin-4(3H)-one trifluoroacetate] the IC50 was under 1000 nM.
Work on `CN1CCC(COc2cc(F)c3c(=O)[nH]c(CSC4CCOCC4)nc3c2)C(F)(F)C1` (centres unmarked) [Example 427] yielded an IC50 of under 1000 nM.
`O=c1[nH]c(CS[C@H]2CC[C@H](O)CC2)nc2cc(Nc3ccccc3)ccc12` [Example 98, 2-(((trans-4-Hydroxycyclohexyl)thio)methyl)-7-(phenylamino)quinazolin-4(3H)-one] showed an IC50 of under 1000 nM.
With `O=c1[nH]c(CS[C@H]2CC[C@H](O)CC2)nc2cc(NC3CCCC3)cc(F)c12` [Example 185, 7-(cyclopentylamino)-5-fluoro-2-((((1R,4R)-4-hydroxycyclohexyl)thio)methyl)quinazolin-4(3H)-one] the IC50 was under 1000 nM.
Work on `O=c1[nH]c(CSC2CCOCC2)nc2cc(NC3CCCC3)cc(F)c12` [Example 184, 7-(cyclopentylamino)-5-fluoro-2-(((tetrahydro-2H-pyran-4-yl)thio)methyl)quinazolin-4(3H)-one] yielded an IC50 of under 1000 nM.
In the case of `CC(C)Cc1ccc2c(=O)[nH]c(CSC3CCOCC3)nc2c1` [Example 202, 7-Isobutyl-2-(((tetrahydro-2H-pyran-4-yl)thio)methyl)quinazolin-4(3H)-one], the IC50 is reported as 1000 to 10000 nM.
`COc1ccc2c(=O)[nH]c(CSC3CCOCC3)nc2c1` [Example 31, 7-Methoxy-2-(((tetrahydro-2H-pyran-4-yl)thio)methyl)quinazolin-4(3H)-one] showed an IC50 of 1000 to 10000 nM.
For `Cc1cccc2c(=O)[nH]c(CSC3CCN(CCCN)CC3)nc12` [Example 165, 2-(((1-(3-Aminopropyl)piperidin-4-yl)thio)methyl)-8-methylquinazolin-4(3H)-one dihydrochloride], the IC50 was under 1000 nM.
`CN1CC[C@H](COc2cc(F)c3c(=O)[nH]c(CSC4CCOCC4)nc3c2)[C@@H](F)C1` (relative stereo) [Example 326, 5-Fluoro-7-(((trans)-3-fluoro-1-methylpiperidin-4-yl)methoxy)-2-(((tetrahydro-2H-pyran-4-yl)thio)methyl)quinazolin-4(3H)-one] gave an IC50 of under 1000 nM.
With `O=c1[nH]c(CS[C@H]2CC[C@@H](CO)CC2)nc2cc(Nc3cccnc3)ccc12` [Example 106, 2-(((cis-4-(Hydroxymethyl)cyclohexyl)thio)methyl)-7-(pyridin-3-ylamino) quinazolin-4(3H)-one] the IC50 was 1000 to 10000 nM.
